Reference: publication PMC7312375, “A Novel, Pan-PDE Inhibitor Exerts Anti-Fibrotic Effects in Human Lung Fibroblasts via Inhibition of TGF-β Signaling and Activation of cAMP/PKA Signaling” (International Journal of Molecular Sciences, 2020)
pIC50: −log10 of the molar value.

Tests used:
PDE3B = target: T1, PDE3B (Homo sapiens, UniProt Q13370); experiment: PDE-Glo assay, human recombinant PDE3B; assay type: biochemical; settings: read-out: PDE-IC50 3B
T1 construct: purchased SignalChem
Description: (§1) Inhibitory activities of the investigated compounds against various subtypes of human recombinant (hr)PDEs, namely PDE1A, PDE1B, PDE1C, PDE3A, PDE3B, PDE4A, PDE4B, PDE4D, PDE7A, and PDE8A were assessed using a PDE-Glo^TM Assay Kit (Promega, Madison, WI, USA) according to the protocol provided by the manufacturer. Briefly, appropriate amounts of each enzyme (SignalChem, Richmond, B.C., Canada), diluted with PDE-Glo reaction buffer, were distributed on a 384-well plate (Thermo Scientific, Waltham, MA, USA). The investigated compounds were dissolved in DMSO, diluted with the same vehicle, and mixed with the reaction buffer at a v/v ratio of 1:5. Thereafter, 1 µL of these mixtures and 2.5 µL of the cAMP solution as a substrate were added. The final cAMP concentration was 0.05 µM. The samples were incubated for 10 min at 30 °C. Then, 2.5 µL of termination buffer and 2.5 µL of PDE-Glo detection solution were added to each well and incubated for 20 min. Finally, 10 µL of PDE-Glo kinase reagent was added, and luminescence was measured using the POLARstar Omega plate reader (BMG LABTECH, Ortenberg, Germany). Each sample was prepared in quadruplicate. The relative activities (A, %) of all samples were calculated from the following equation: A = [(LUsample − LUblank)/(LUcontrol − LUblank)]·100%; where LUcontrol is the luminescence of a control sample in the absence of a PDE inhibitor, LUsample is a luminescence of an investigated sample in the presence of an inhibitor, and LUblank is a luminescence of a sample in the absence of enzyme (activity = 0). IC50 values were estimated using non-linear regression.

[1] = system: TGF-β1-induced MRC-5 cells; experiment: Western blot of p-Smad-2; assay type: cell-based, human; settings: 10 µM, 1 h pre-incubation, TGF-β1 5 ng/mL 1 h
Description: Western Blot analysis was performed according to a standard protocol. Briefly, MRC-5 cells were pre-incubated with the study compounds (10 µM) for 1 h, […] (RIPA Lysis and Extraction Buffer, Thermo Fisher Scientific, Waltham, MA, USA) and supplemented with protease inhibitor cocktail and phosphatase inhibitor cocktail (both from Sigma Aldrich, St. Louis, MO, USA). Equal amounts of protein (30 µg) were separated using 10% SDS-polyacrylamide gels and transferred onto polyvinylidene difluoride (PVDF) membranes (Thermo Fisher Scientific, Waltham, MA, USA). Then membranes were washed with Tris Buffered Saline with Tween 20 (TBST) buffer (150 mM NaCl, 50 mM Tris, 0.05% Tween 20), blocked with 5% skim milk in TBST and incubated overnight with the appropriate primary antibody: rabbit, polyclonal anti-SMAD2 antibody, dilution 1:250, #51-1300 and rabbit, polyclonal anti-phospho-SMAD2 (Ser465, Ser467) antibody, dilution 1:500, #44-244G (both from Thermo Fisher Scientific, Waltham, MA, USA); rabbit, polyclonal anti-CREB1 antibody, dilution 1:500, #orb213777 and rabbit, polyclonal anti-phospho-CREB1 (Ser133) antibody, dilution 1:500, #orb213775 (both from Biorbyt LLC, San Francisco, CA, USA); mouse monoclonal anti-GAPDH antibody, dilution 1:5000, #G8795 (Sigma Aldrich, St. Louis, MO, USA). The next day, after gentle rising, membranes were exposed to secondary, rabbit anti-mouse IgG (whole molecule) peroxidase antibody (#A9044, dilution 1:3000, Sigma Aldrich, St. Louis, MO, USA) and goat anti-rabbit IgG (H+L) peroxidase-conjugated antibody (#32460, dilution 1:3000, Thermo Fisher Scientific, Waltham, MA, USA). Blots were visualized using a chemiluminescence method (Clarity Max™ Western ECL Substrate—Peroxide Solution, BioRad, Hercules, CA, USA) with a C-DiGit® Blot Scanner (LI-COR Biosciences, Lincoln, NE, USA). ROD was measured according to the NIH guidelines with Fiji ImageJ Software. The experiments were run four times.

MRC-5 cells [2] = experiment: Intracellular calcium measurements (Fluo-4); assay type: cell-based, human
Description: MRC-5 cells were briefly washed with NaHEPES buffer (NaHEPES buffer was prepared as follows: NaCl 140 mM, KCl 4.7 mM, HEPES 10 mM, MgCl2 1 mM, glucose 10 mM; pH 7.3) and then loaded with 1 µM Fluo-4 AM (Thermo Fisher Scientific, Waltham, MA, USA) for 1 h, 37 °C in NaHEPES. After the incubation, the cells were washed again with fresh NaHEPES and used for experiments in a flow chamber perfused with NaHEPES-based extracellular solution supplemented with 1 mM CaCl2. All experiments were carried out at room temperature using Zeiss LSM 880 confocal microscope (40× oil objective), excitation was set to 488 nm, and the emission was between 500 and 600 nm. Each series of images was recorded at 256 × 256-pixel resolution, two consecutive frames were averaged, and the interval between the averaged images was set at 2 s. Fluorescence signals were plotted as F/F0, where F0 was baseline fluorescence defined as the averaged signal from ten consecutive baseline images.

PDE4A = target: T2, PDE4A (Homo sapiens, UniProt P27815); experiment: PDE-Glo assay, human recombinant PDE4A; assay type: biochemical; settings: read-out: PDE-IC50 4A
T2 construct: purchased SignalChem
Description: as §1

MRC-5 cells [3] = experiment: cAMP ELISA; assay type: cell-based, human; settings: 10 µM, 30 min
Description: MRC-5 cells were seeded in standard culture medium for 24 h and then serum-starved for 2 h in HBSS. The study compounds (10 µM) were added to the MRC-5 cultures and after 30 min of incubation, the intracellular cAMP level in cell lysates was measured using a colorimetric cAMP ELISA Kit according to the manufacturer’s protocol (Cell Biolabs, INC., San Diego, CA, USA). Obtained results were normalized to total protein content in each sample. The experiments were run two times in duplicates.

PDE1C = target: T3, PDE1C (Homo sapiens, UniProt Q14123); experiment: PDE-Glo assay, human recombinant PDE1C; assay type: biochemical; settings: read-out: PDE-IC50 1C
T3 construct: purchased SignalChem
Description: as §1

T3 sequence (Q14123 whole entry): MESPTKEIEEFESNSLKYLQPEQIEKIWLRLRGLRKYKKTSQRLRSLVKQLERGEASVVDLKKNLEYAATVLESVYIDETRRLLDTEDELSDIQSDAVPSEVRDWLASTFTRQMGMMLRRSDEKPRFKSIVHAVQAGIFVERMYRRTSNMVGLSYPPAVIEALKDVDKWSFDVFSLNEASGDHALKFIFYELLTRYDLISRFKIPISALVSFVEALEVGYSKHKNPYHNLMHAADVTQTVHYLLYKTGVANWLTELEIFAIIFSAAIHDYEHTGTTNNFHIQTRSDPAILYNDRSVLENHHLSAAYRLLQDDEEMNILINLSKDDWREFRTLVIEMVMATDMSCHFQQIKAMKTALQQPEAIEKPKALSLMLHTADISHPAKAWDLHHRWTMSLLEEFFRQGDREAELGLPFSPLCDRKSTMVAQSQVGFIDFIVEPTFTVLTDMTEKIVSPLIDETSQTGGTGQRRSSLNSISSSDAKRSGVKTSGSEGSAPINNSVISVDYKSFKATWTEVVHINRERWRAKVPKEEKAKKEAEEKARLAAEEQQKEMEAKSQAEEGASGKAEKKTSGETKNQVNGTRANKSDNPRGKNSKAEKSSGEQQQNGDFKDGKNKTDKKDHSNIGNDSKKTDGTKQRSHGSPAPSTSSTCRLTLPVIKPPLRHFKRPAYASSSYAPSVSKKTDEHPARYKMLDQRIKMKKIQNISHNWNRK
T1 sequence (Q13370 whole entry): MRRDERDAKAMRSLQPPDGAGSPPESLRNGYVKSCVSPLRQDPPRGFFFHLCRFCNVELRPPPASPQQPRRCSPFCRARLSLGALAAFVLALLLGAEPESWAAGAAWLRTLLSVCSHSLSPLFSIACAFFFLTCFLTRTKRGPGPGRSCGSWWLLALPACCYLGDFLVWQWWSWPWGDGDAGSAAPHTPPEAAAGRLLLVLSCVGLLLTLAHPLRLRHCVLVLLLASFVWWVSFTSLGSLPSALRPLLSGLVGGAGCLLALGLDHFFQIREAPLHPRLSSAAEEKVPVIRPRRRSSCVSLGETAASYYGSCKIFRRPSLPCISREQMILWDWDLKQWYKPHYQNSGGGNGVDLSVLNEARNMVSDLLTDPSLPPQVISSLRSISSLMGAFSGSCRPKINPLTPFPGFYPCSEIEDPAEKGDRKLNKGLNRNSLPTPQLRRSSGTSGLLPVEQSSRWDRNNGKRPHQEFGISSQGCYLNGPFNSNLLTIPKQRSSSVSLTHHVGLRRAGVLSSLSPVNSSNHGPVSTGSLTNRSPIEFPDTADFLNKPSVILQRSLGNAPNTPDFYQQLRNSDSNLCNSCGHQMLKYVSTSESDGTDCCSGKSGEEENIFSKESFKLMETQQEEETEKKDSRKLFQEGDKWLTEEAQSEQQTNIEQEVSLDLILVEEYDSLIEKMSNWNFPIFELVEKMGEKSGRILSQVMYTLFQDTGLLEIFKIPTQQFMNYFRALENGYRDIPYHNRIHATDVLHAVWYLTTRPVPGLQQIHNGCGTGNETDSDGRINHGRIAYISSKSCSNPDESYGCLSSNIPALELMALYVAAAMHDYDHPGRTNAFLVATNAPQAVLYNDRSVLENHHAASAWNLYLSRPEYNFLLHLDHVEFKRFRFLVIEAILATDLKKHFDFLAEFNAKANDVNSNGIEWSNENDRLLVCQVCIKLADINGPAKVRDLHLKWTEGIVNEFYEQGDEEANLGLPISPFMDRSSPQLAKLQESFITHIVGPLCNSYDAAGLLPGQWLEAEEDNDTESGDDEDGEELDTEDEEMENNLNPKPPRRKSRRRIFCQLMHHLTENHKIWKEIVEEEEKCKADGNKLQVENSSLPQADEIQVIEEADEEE
T2 sequence (P27815 whole entry): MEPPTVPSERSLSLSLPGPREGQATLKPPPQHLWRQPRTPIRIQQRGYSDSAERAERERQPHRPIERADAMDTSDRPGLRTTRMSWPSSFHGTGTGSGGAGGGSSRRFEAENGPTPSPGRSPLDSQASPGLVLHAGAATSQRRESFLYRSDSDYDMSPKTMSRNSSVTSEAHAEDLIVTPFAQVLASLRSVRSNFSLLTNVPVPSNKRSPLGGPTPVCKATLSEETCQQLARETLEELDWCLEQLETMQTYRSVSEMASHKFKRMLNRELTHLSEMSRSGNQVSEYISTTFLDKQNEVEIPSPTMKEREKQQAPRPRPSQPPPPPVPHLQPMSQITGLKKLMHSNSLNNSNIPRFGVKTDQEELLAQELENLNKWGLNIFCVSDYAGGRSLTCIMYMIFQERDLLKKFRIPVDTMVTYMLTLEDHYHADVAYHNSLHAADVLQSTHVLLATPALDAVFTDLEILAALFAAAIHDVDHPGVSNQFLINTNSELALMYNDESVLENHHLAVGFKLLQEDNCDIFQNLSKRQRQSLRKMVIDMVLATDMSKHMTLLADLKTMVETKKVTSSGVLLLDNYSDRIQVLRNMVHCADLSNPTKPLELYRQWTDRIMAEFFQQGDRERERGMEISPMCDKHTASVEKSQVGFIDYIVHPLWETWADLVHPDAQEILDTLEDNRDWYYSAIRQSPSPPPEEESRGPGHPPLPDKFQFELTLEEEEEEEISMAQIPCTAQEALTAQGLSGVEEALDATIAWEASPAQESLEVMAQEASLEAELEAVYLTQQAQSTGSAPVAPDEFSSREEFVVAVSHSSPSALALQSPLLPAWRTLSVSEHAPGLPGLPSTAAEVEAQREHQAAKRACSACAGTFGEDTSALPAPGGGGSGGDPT

Compound	pIC50 (PDE3B)	TGF-β1-induced Smad-2 phosphorylation (immunoblot) [1]	increase in average Ca2+ response area over baseline (MRC-5 cells [2]; 10 µM, acute application)	pIC50 (PDE4A)	increase in cAMP level compared to control (MRC-5 cells [3])	pIC50 (PDE1C)	effect on Ca2+ influx in lung fibroblasts (MRC-5 cells [2]; 10 µM, acute application)	Ca2+ responses under TRPA1 inhibition by HC-030031 (MRC-5 cells [2]; 145 10 µM in the presence of HC-030031 10 µM)	cAMP level (MRC-5 cells [3]; control 508.87)
Cn1c(=O)c2c(nc(NCc3ccco3)n2CCCC(=O)NN=Cc2ccc(O)cc2O)n(C)c1=O [Compound 832, N′-(2,4-dihydroxybenzylidene)-4-(8-((furan-2-ylmethyl)amino)-1,3-dimethyl-2,6-dioxo-1,2,3,6-tetrahydro-7H-purin-7-yl)butanehydrazide]	6.38	no differences	two-fold	5.32	2.16 fold	4.05	–	–	–
COc1nc2c(c(=O)n(C)c(=O)n2C)n1CC(=O)Nc1ccc(C(C)(C)C)cc1 [Compound 869, N-(4-(tert-butyl)phenyl)-2-(8-methoxy-1,3-dimethyl-2,6-dioxo-1,2,3,6-tetrahydro-7H-purin-7-yl)acetamide]	3.80	no differences	–	4.24	–	3.76	inhibited Ca^2+ influx	–	–
CC(C)Cn1c(=O)n(C)c(=O)c2[nH]cnc21 [IBMX, 3-isobutyl-1-methyl-3,7-dihydro-1H-purine-2,6-dione, reference compound]	6.51	no differences	–	4.79	2.53 fold	4.90	–	–	–
CCCCOc1nc2c(c(=O)n(C)c(=O)n2C)n1CCCC(=O)Nc1cc(C(C)(C)C)ccc1O [Compound 145, 4-(8-butoxy-1,3-dimethyl-2,6-dioxo-1,2,3,6-tetrahydro-7H-purin-7-yl)-N-(5-(tert-butyl)-2-hydroxyphenyl)butanamide]	5.69	reduced	four-fold	5.80	4.5 fold	4.31	–	failed to induce Ca^2+ responses	2262.07 fmol/mL/mg of protein
